The results in this text go back to patent publication US8557738B2, “Nitrogen-containing heterocyclic derivative and fungicide for agricultural and horticultural use” (Nippon Soda Co., Ltd., priority 2008, dated 2013).

The structures appear in SMILES notation. Where only a bound is given, the exact number is not on record here.

The subject of one data set is apple scab pathogen (Venturia inaequalis). Briefly: Apple scab control test. It is filed as in vivo. Particulars: 336 h, emulsion sprayed at 100 ppm active ingredient onto apple seedlings (Ralls Janet), lesions on leaves after 2 weeks vs untreated, read-out: control value.
Take `CC1(C)CN=C(c2cnc3sccc3c2)c2cccc(Cl)c2O1` [A1-20, 9-Chloro-2,2-dimethyl-5-(thieno[2,3-b]pyridin-5-yl)-2,3-dihydro-benzo[f][1,4]oxazepine]: the pest or weed control at 100 ppm is no less than 75%.

Consider `c1ccc2c(c1)OCCN=C2c1cnc2ccccc2c1` [B1-1, 5-(3-Quinolinyl)-2,3-dihydro-benzo[f][1,4]oxazepine], for which the pest or weed control at 100 ppm was no less than 75%.

For `CC1(C(F)(F)F)CN=C(c2cnc3ccccc3c2)c2ccccc2O1` (stereo not drawn) [B1-51, 2-Methyl-5-quinolin-3-yl-2-trifluoromethyl-2,3-dihydro-benzo[f][1,4]oxazepine], the pest or weed control at 100 ppm is no less than 75%.

For `CC1(Cc2ccc(F)cc2)CN=C(c2cnc3ccccc3c2)c2ccccc2O1` (stereo not drawn) [B1-53, 2-(4-Fluorobenzyl)-2-methyl-5-quinolin-3-yl-2,3-dihydro-benzo[f][1,4]oxazepine], the pest or weed control at 100 ppm was no less than 75%.

Take `CC1(C)CN=C(c2cnc3ccccc3c2)c2cccc(C#N)c2O1` [B1-54, 2,2-Dimethyl-5-quinolin-3-yl-2,3-dihydro-benzo[f][1,4]oxazepine-9-carbonitrile]: the pest or weed control at 100 ppm is no less than 75%.

On to `CC1(C(F)(F)F)CN=C(c2cnc3c(F)cccc3c2)c2ccccc2O1` (stereo not drawn) [B1-56, 5-(8-Fluoro-quinolin-3-yl)-2-methyl-2-trifluoromethyl-2,3-dihydro-benzo[f][1,4]oxazepine], for which the pest or weed control at 100 ppm is no less than 75%.

Test system in a further data set: not given
Assay: not given
Details: not given
As to `Cc1cc(C2=NCCOc3c(Cl)cccc32)cnc1C`, the melting point was 142 to 143 °C.

`CC1(C)CN=C(c2cnc3ccccc3c2)c2cccc(Cl)c2O1.Cl` showed a melting point of 149 to 151 °C.

For the compound `CC1(C)CN=C(c2cnc3ccccc3c2)c2cccc(Cl)c2O1.O=C(O)C(F)(F)F`, the melting point is 129 to 131 °C.

For `CC1(C)CN=C(c2cnc3c(F)cccc3c2)c2cccc(F)c2O1.O=C(O)C(F)(F)F`, the melting point lay in the range of 174 to 176 °C.

Consider `CC1(C)CN=C(c2cnc3c(F)cccc3c2)c2cccc(F)c2O1.Cl`, for which the melting point is 164 to 166 °C.

The compound `Fc1cccc2c1C(c1cnc3ccccc3c1)=NCCO2` had a melting point of 126 to 128 °C.

For `c1ccc2c(c1)OCCN=C2c1cnc2ccccc2c1` [B1-1, 5-(3-Quinolinyl)-2,3-dihydro-benzo[f][1,4]oxazepine], the melting point lay within 115 to 117 °C.

The compound `CC1(Cl)CN=C(c2cnc3ccccc3c2)c2cccc(F)c2O1` (stereo not drawn) [B1-30, 2-Chloro-9-fluoro-2-methyl-5-(3-quinolinyl)-2,3-dihydro-benzo[f][1,4]oxazepine] came in with a melting point of 123 to 125 °C.

For the compound `CC1(C)CN=C(c2cnc3c(F)cccc3c2)c2ccccc2O1` [B1-37, 5-(8-Fluoro-quinolin-3-yl)-2,2-dimethyl-2,3-dihydro-benzo[f][1,4]oxazepine], the melting point is 165 to 167 °C.

For `CC1(C)CN=C(c2cnc3c(F)cccc3c2)c2cccc(F)c2O1` [B1-38, 2,2-Dimethyl-9-fluoro-5-(8-fluoro-quinolin-3-yl)-2,3-dihydro-benzo[f][1,4]oxazepine], the melting point was 171 to 173 °C.

`CC1(C)CN=C(c2cnc3c(F)cccc3c2)c2cccc(Cl)c2O1` [B1-39, 9-Chloro-5-(8-fluoro-quinolin-3-yl)-2,2-dimethyl-2,3-dihydro-benzo[f][1,4]oxazepine] showed a melting point of 190 to 191 °C.

`Cc1cccc2cc(C3=NCC(C)(C)Oc4c(Cl)cccc43)cnc12` [B1-40, 9-Chloro-2,2-dimethyl-5-(8-methylquinolin-3-yl)-2,3-dihydro-benzo[f][1,4]oxazepine] had a melting point of 145 to 147 °C.

With `CC1(C)CN=C(c2cnc3c(Cl)cccc3c2)c2cccc(Cl)c2O1` [B1-41, 2,2-Dimethyl-9-chloro-5-(8-chloro-quinolin-3-yl)-2,3-dihydro-benzo[f][1,4]oxazepine], the melting point was in the range of 214 to 217 °C.

`CC1N=C(c2cnc3ccccc3c2)c2ccccc2OC1(C)C` (stereo not drawn) [B1-42, 5-(3-Quinolinyl)-2,2,3-trimethyl-2,3-dihydro-benzo[f][1,4]oxazepine] showed a melting point of 139 to 142 °C.

`CC1(C)N=C(c2cnc3ccccc3c2)c2cccc(F)c2OC1(C)C` [B1-43, 9-Fluoro-5-(3-quinolinyl)-2,2,3,3-tetramethyl-2,3-dihydro-benzo[f][1,4]oxazepine] yielded a melting point of 132 to 133 °C.

In turn, `CC1(C)N=C(c2cnc3c(F)cccc3c2)c2cccc(F)c2OC1(C)C` [B1-45, 9-Fluoro-5-(8-fluoro-quinolin-3-yl)-2,2,3,3-tetramethyl-2,3-dihydro-benzo[f][1,4]oxazepine] registered a melting point of 144 to 145 °C.

In turn, `CC1(C)CN=C(c2cnc3c(Cl)cccc3c2)c2ccccc2O1` [B1-46, 5-(8-Chloro-quinolin-3-yl)-2,2-dimethyl-2,3-dihydro-benzo[f][1,4]oxazepine] returned a melting point of 155 to 157 °C.

Compound `CCC1(C)CN=C(c2cnc3c(F)cccc3c2)c2ccccc2O1` (stereo not drawn) [B1-47, 2-Ethyl-5-(8-fluoro-quinolin-3-yl)-2-methyl-2,3-dihydro-benzo[f][1,4]oxazepine] had a melting point of 93 to 95 °C.

`CCC1(C)CN=C(c2cnc3c(F)cccc3c2)c2cccc(Cl)c2O1` (stereo not drawn) [B1-48, 9-Chloro-2-ethyl-5-(8-fluoro-quinolin-3-yl)-2-methyl-2,3-dihydro-benzo[f][1,4]oxazepine] registered a melting point of 144 to 146 °C.

As for `CCC1(C)CN=C(c2cnc3c(F)cccc3c2)c2cccc(F)c2O1` (stereo not drawn) [B1-49, 2-Ethyl-9-fluoro-5-(8-fluoro-quinolin-3-yl)-2-methyl-2,3-dihydro-benzo[f][1,4]oxazepine], the melting point was 140 to 142 °C.

Regarding `CC1(c2ccccc2)CN=C(c2cnc3ccccc3c2)c2ccccc2O1` (stereo not drawn) [B1-52, 2-Methyl-2-phenyl-5-quinolin-3-yl-2,3-dihydro-benzo[f][1,4]oxazepine], the melting point was 196 to 197 °C.

In turn, `COc1cccc2c1OC(C)(C)CN=C2c1cnc2ccccc2c1` [B1-55, 9-Methoxy-2,2-dimethyl-5-quinolin-3-yl-2,3-dihydro-benzo[f][1,4]oxazepine] had a melting point of 153 to 155 °C.

In turn, `CC1(C(F)(F)F)CN=C(c2cnc3c(F)cccc3c2)c2ccccc2O1` (stereo not drawn) [B1-56, 5-(8-Fluoro-quinolin-3-yl)-2-methyl-2-trifluoromethyl-2,3-dihydro-benzo[f][1,4]oxazepine] gave a melting point of 103 to 105 °C.

In turn, `CC1(C)CN=C(c2cnc3cccc(Cl)c3c2)c2cccc(Cl)c2O1` [B1-57, 9-Chloro-5-(5-chloro-quinolin-3-yl)-2,2-dimethyl-2,3-dihydro-benzo[f][1,4]oxazepine] came in with a melting point of 157 to 159 °C.

Take `Cc1cccc2ncc(C3=NCC(C)(C)Oc4c(Cl)cccc43)cc12` [B1-58, 9-Chloro-2,2-dimethyl-5-(5-methyl-quinolin-3-yl)-2,3-dihydro-benzo[f][1,4]oxazepine]: the melting point is 160 to 162 °C.

For `Cc1ccc2ncc(C3=NCC(C)(C)Oc4c(Cl)cccc43)cc2c1` [B1-60, 9-Chloro-2,2-dimethyl-5-(6-methylquinolin-3-yl)-2,3-dihydro-benzo[f][1,4]oxazepine], the melting point lay within 166 to 168 °C.

Turning to `c1ccc2c(c1)N=C(c1cnc3ccccc3c1)c1ccccc1O2` [B1-83, 11-Quinolin-3-yl-dibenzo[b,f][1,4]oxazepine], the melting point was in the range of 182 to 184 °C.

Take `CC1(C)COc2cc(F)ccc2C(c2cnc3ccccc3c2)=N1` [B1-85, 8-Fluoro-3,3-dimethyl-5-quinolin-3-yl-2,3-dihydro-benzo[f][1,4]oxazepine]: the melting point lay in the range of 133 to 135 °C.

`CC1(C)CN=C(c2cnc3c(F)cccc3c2)c2ccccc2S1` [B2-13, 2,2-Dimethyl-5-(8-fluoro-quinolin-3-yl)-2,3-dihydro-benzo[f][1,4]thiazepine] registered a melting point of 181 to 183 °C.

The compound `CC1(C)CN=C(c2cnc3ccccc3c2)c2cccc(F)c2S1` [B2-14, 4-Fluoro-6,6-dimethyl-9-quinolin-3-yl-6,7-dihydro-5-thia-8-aza-benzocycloheptene] came in with a melting point of 119 to 122 °C.

Take `CC1(C)CN=C(c2cnc3c(F)cccc3c2)c2cccc(F)c2S1` [B2-15, 4-Fluoro-9-(8-fluoro-quinolin-3-yl)-6,6-dimethyl-6,7-dihydro-5-thia-8-aza-benzocycloheptene]: the melting point was 179 to 181 °C.

`CC1(C)CN=C(c2cnc3ccccc3c2)c2ccccc2[S+]1[O-]` (stereo not drawn) [B2-16, 6,6-Dimethyl-9-quinolin-3-yl-6,7-dihydro-5-thia-8-aza-benzocycloheptene 5-oxide] showed a melting point of 118 to 120 °C.

For `O=C1COc2ccccc2C(c2cnc3ccccc3c2)N1` (stereo not drawn) [B4-46, 5-Quinolin-3-yl-4,5-dihydro-benzo[f][1,4]oxazepin-3-one], the melting point was 225 to 227 °C.

The compound `CC1(C)CNC(c2cnc3c(F)cccc3c2)c2cccc(F)c2O1` (stereo not drawn) [B4-47, 9-Fluoro-5-(8-fluoro-quinolin-3-yl)-2,2-dimethyl-2,3,4,5-tetrahydro-benzo[f][1,4]oxazepine] returned a melting point of 130 to 131 °C.

As for `CCN1CC(C)(C)Oc2c(F)cccc2C1c1cnc2c(F)cccc2c1` (stereo not drawn) [B4-48, 4-Ethyl-9-fluoro-5-(8-fluoro-quinolin-3-yl)-2,2-dimethyl-2,3,4,5-tetrahydro-benzo[f][1,4]oxazepine], the melting point lay in the range of 117 to 118 °C.

In turn, `CC1(C)CNC(c2cnc3c(F)cccc3c2)c2cccc(Cl)c2O1` (stereo not drawn) [B4-49, 9-Chloro-5-(8-fluoro-quinolin-3-yl)-2,2-dimethyl-2,3,4,5-tetrahydro-benzo[f][1,4]oxazepine] yielded a melting point of 133 to 134 °C.

`CC1(C)CN(C=O)C(c2cnc3c(F)cccc3c2)c2cccc(F)c2O1` (stereo not drawn) [B4-51, 9-Fluoro-5-(8-fluoro-quinolin-3-yl)-2,2-dimethyl-2,3-dihydro-5H-benzo[f][1,4]oxazepine-4-carbaldehyde] returned a melting point of 131 to 133 °C.

In turn, `CC(=O)N1CC(C)(C)Oc2c(F)cccc2C1c1cnc2c(F)cccc2c1` (stereo not drawn) [B4-52, 1-[9-Fluoro-5-(8-fluoro-quinolin-3-yl)-2,2-dimethyl-2,3-dihydro-5H-benzo[f][1,4]oxazepin-4-yl]-ethanone] had a melting point of 132 to 134 °C.

`CC1(C)Oc2ccccc2C(c2cnc3ccccc3c2)NC1=O` (stereo not drawn) [B4-53, 2,2-Dimethyl-5-quinolin-3-yl-4,5-dihydro-benzo[f][1,4]oxazepin-3-one] showed a melting point of 225 to 227 °C.

The melting point is the temperature of the solid-liquid transition.
